# What was measured:
# Assay type in all cases: in vivo
# [1] = tested on: Echinochloa crus-galli; assay: Test Example 11: herbicidal effect test by soil treatment in paddy field; settings: 120 g/10a active ingredient, 14 days after treatment
# Outline: (§1)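 Pre-emergence paddy test, 120 g a.i./10 are, emulsifiable concentrate diluted in water and added dropwise to ~3 cm flood water right after sowing (30 seeds/species, 0–1 cm depth, fertilized puddled soil). Greenhouse; 2 replicates; dry-weight suppression (%) vs untreated, day 14.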
# [2] = tested on: Lindernia pyxidaria; assay: as above; settings: 120 g/10a active ingredient, 14 days after treatment
# Outline: as §1
# [3] = tested on: Scirpus juncoides; assay: as above; settings: 120 g/10a active ingredient, 14 days after treatment
# Outline: as §1
# [4] = tested on: Monochoria vaginalis; assay: as above; settings: 120 g/10a active ingredient, 14 days after treatment
# Outline: as §1
# [5] = tested on: Echinochloa crus-galli; assay: Test Example 12: herbicidal effect test by treatment during growing period in paddy field; settings: 120 g/10a; treatment seven days after sowing in flooded paddy pot; assessed 14 days after treatment
# Outline: (§2)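 Paddy soil + NPK 17:17:17, puddled; 30 seeds/species sown 0–1 cm; flooded ~3 cm, greenhouse. Day 7 post-sowing: EC diluted in water, applied dropwise into water, 120 g a.i./10 are. Day 14 post-treatment: dry weight vs untreated → % suppression; n=2.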
# [6] = tested on: Lindernia pyxidaria; assay: as above; settings: 120 g/10a; treatment seven days after sowing in flooded paddy pot; assessed 14 days after treatment
# Outline: as §2
# [7] = tested on: Scirpus juncoides; assay: as above; settings: 120 g/10a; treatment seven days after sowing in flooded paddy pot; assessed 14 days after treatment
# Outline: as §2
# [8] = tested on: Monochoria vaginalis; assay: as above; settings: 120 g/10a; treatment seven days after sowing in flooded paddy pot; assessed 14 days after treatment
# Outline: as §2
# [9] = tested on: Echinochloa crus-galli; assay: Test Example 13: herbicidal effect test by soil treatment in upland field; settings: 120 g/10a, 14 days after treatment
# Outline: (§3)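 Pre-emergence soil spray, 1 d post-sowing; emulsifiable concentrate in water, 100 L/10 are, 120 g a.i./10 are. Pots 36 cm^2, alluvial soil, 20 seeds/species in top 1 cm. n=2; read 14 d; suppression % = (1 − treated/untreated mean dry weight) × 100.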
# [10] = tested on: Chenopodium album; assay: as above; settings: 120 g/10a, 14 days after treatment
# Outline: as §3
# [11] = tested on: crabgrass; assay: as above; settings: 120 g/10a, 14 days after treatment
# Outline: as §3
# [12] = tested on: Amaranthus viridis; assay: as above; settings: 120 g/10a, 14 days after treatment
# Outline: as §3
# [13] = tested on: Echinochloa crus-galli; assay: Test Example 14: herbicidal effect test by foliage treatment in upland field; settings: 7 days after sowing, 120 g/10a, 14 days after treatment
# Outline: (§4)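 Emulsifiable concentrate, water-diluted, is applied post-emergence to 7-day-old sowings in field soil at 120 g active ingredient per 10 are. The weed suppression rate derives from average dry weights versus untreated controls, measured 14 days later.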
# [14] = tested on: Amaranthus viridis; assay: as above; settings: 7 days after sowing, 120 g/10a, 14 days after treatment
# Outline: as §4
# [15] = tested on: Chenopodium album; assay: as above; settings: 7 days after sowing, 120 g/10a, 14 days after treatment
# Outline: as §4
# [16] = tested on: crabgrass; assay: as above; settings: 7 days after sowing, 120 g/10a, 14 days after treatment
# Outline: as §4
Compound,Weed suppression rate (%) Echinochloa crus-galli [1] [%],Weed suppression rate (%) Lindemia pyxidaria [2] [%],Weed suppression rate (%) Scirpus juncoides [3] [%],Weed suppression rate (%) Monochoria vaginalis [4] [%],Weed suppression rate (%) Echinochloa crus-galli [5] [%],Weed suppression rate (%) Lindemia pyxidaria [6] [%],Weed suppression rate (%) Scirpus juncoides [7] [%],Weed suppression rate (%) Monochoria vaginalis [8] [%],"herbicidal effect, Echinochloa crus-galli [9] [%]","herbicidal effect, Chenopodium album [10] [%]","herbicidal effect, Crabgrass [11] [%]","herbicidal effect, Amaranthus viridis [12] [%]","herbicidal effect, Echinochloa crus-galli [13] [%]","herbicidal effect, Amaranthus viridis [14] [%]","herbicidal effect, Chenopodium album [15] [%]","herbicidal effect, Crabgrass [16] [%]"
CC(C)N(C(=O)n1cnn(S(=O)(=O)N(C)C)c1=O)c1ccc(F)cc1 [Compound 11-1056],90,80,90,80,90,80,90,80,80,80,90,90,80,90,80,90
CC(C)N(C(=O)n1cnn(S(=O)(=O)N(C)C)c1=O)c1ccc(F)cc1F [Compound 11-1064],100,100,100,100,100,90,90,90,100,90,100,90,90,70,80,90
CC(C)N(C(=O)n1cnn(S(=O)(=O)N(C)C)c1=O)c1ccc(F)cc1Cl [Compound 11-1071],90,80,90,80,90,80,90,80,80,80,90,90,80,90,80,90
CC(C)N(C(=O)n1cnn(S(=O)(=O)N(C)C)c1=O)c1ccc(Cl)cn1 [Compound 11-1090],100,100,90,60,100,90,90,60,80,50,90,50,90,40,40,90
CCN(C)S(=O)(=O)n1ncn(C(=O)N(c2ccc(F)cc2F)C(C)C)c1=O [Compound 11-1098],100,100,100,80,100,70,70,80,100,100,100,90,80,90,80,90
